The text below walks through data of EPA's ToxRefDB 2.

SMILES strings stand for the structures.

Series [1] concerns rat. The following applies: Subchronic oral toxicity in rodents, Feed, dose end: 90 day, group: systemic.
For series [2], the system named is dog. The note with it: Chronic toxicity, beagle, Oral, Feed, dose end: 52 week, group: systemic.
In series [3] the test system is dog. The following applies: Subchronic oral toxicity in nonrodent, beagle, Feed, dose end: 90 day, group: systemic, systemic / in life observation / clinical signs / defecation (diarrhea) + systemic / in life observation / clinical signs / emesis + ….
Series [4] has as its system rat. The note with it: Developmental neurotoxicity range-finding study; sprague dawley; Oral; Feed; dose end: 21 PND; group: cannot be grouped; systemic / in life observation / body weight / body weight + systemic / in life observation / body weight / body weight gain + systemic / in….
The test system of series [5] is mouse. The note with it: Carcinogenicity; cd1; Oral; Feed; dose end: 104 week; group: systemic; systemic / in life observation / clinical signs / hyperactivity.
Series [6] relates to rat. The following applies: Developmental neurotoxicity study; sprague dawley; Inhalation; Whole-Body; dose end: 365 PND; group: cannot be grouped; systemic / in life observation / body weight / body weight gain + systemic / in life observation / body weight / offspring (pup) weight.
Series [7] relates to mouse. The note with it: Carcinogenicity, cd1, Oral, Feed, dose end: 18 month, group: systemic.
Series [8] concerns dog. The note with it: Chronic toxicity, beagle, Oral, Feed, dose end: 12 month.
Series [9] deals with rat. The note with it: Multigenerational reproductive toxicity study, sprague dawley, Oral, Feed, dose end: 2 generation.
The test system of series [10] is dog. The note with it: Subchronic oral toxicity in nonrodent, beagle, Feed, dose end: 90 day, group: systemic.
For series [11], the system named is rabbit. The note with it: Prenatal developmental toxicity study; new zealand white; Oral; Gavage/Intubation; dose end: 19 GD; group: maternal; reproductive / reproductive performance / postimplantation loss / postimplantation loss + reproductive / reproductive performance / ….
Series [12] concerns rat. The following applies: Combined chronic toxicity/carcinogenicity, fischer, Oral, Feed, dose end: 2 year, group: systemic.
Series [13] has as its system rat. The following applies: Multigenerational reproductive toxicity study, other, Oral, Feed, dose end: 3 generation.
Series [14] has as its system rat. The following applies: Combined chronic toxicity/carcinogenicity, other, Oral, Feed, dose end: 27 month, group: systemic.
For series [15], the system named is mouse. The note with it: Combined chronic toxicity/carcinogenicity; other; Oral; Feed; dose end: 24 month; group: systemic; systemic / organ weight / thyroid gland / absolute + systemic / organ weight / thyroid gland / relative to body weight + systemic / organ ….
For series [16], the system named is rabbit. The note with it: Sub-acute dermal toxicity, new zealand white, Topical, dose end: 28 day, group: systemic, systemic / in life observation / body weight / body weight + systemic / in life observation / food consumption / food consumption + systemic….
Series [17] has as its system rat. The note with it: Prenatal developmental toxicity study, other, Oral, Gavage/Intubation, dose end: 15 GD.
Series [18] relates to rat. The following applies: Sub-acute repeat dose toxicity, other, Oral, Feed, dose end: 28 day, group: systemic.
Series [19] relates to rat. The note with it: Combined chronic toxicity/carcinogenicity, other, Oral, Feed, dose end: 27 month, group: systemic. This is another data set of the same source.
Setting [20] is: systemic / clinical chemistry / urea nitrogen / urea + systemic / clinical chemistry / alkaline phosphatase (alp/alk) / alkaline phosphatase….
[21] abbreviates: systemic / in life observation / clinical signs / tremors + systemic / clinical chemistry / glucose / glucose + systemic / in life ….
Setting [22] is: systemic / organ weight / liver / nos + systemic / pathology microscopic / liver / eosinophilic focus + systemic / pathology microscopic / ….
Setting [23] is: group: reproductive, reproductive / reproductive performance / estrous cycle / periodicity.
The mark [24] stands for this setting: group: systemic, systemic / in life observation / body weight / body weight + systemic / in life observation / body weight / body weight gain + systemic / in….
Setting [25] is: group: systemic, systemic / pathology microscopic / uterus / estrus.
[26] abbreviates: group: offspring, systemic / in life observation / body weight / offspring (pup) weight.
The mark [27] stands for this setting: group: offspring, systemic / in life observation / body weight / offspring (pup) weight + developmental / offspring survival late / lactation index / ….
Where [28] appears, read: group: parental, systemic / in life observation / food consumption / food consumption + systemic / in life observation / body weight / body weight + systemic….
The mark [29] stands for this setting: group: reproductive, reproductive / offspring survival early / birth index / live birth index.
Where [30] appears, read: systemic / in life observation / body weight / body weight gain.
The mark [31] stands for this setting: systemic / in life observation / body weight / body weight gain + systemic / in life observation / food consumption / food consumption.
Where [32] appears, read: systemic / pathology gross / stomach / discolored + systemic / pathology gross / stomach / foci + systemic / pathology gross / stomach / ….
Setting [33] is: group: parental, systemic / in life observation / body weight / body weight + systemic / organ weight / brain / relative to body weight.
[34] abbreviates: group: parental, systemic / in life observation / body weight / body weight + systemic / pathology gross / full gross necropsy / hyperemia + systemic / ….
Setting [35] is: group: reproductive, reproductive / reproductive performance / fertility / fertility + reproductive / reproductive performance / mating / mating + reproductive….
The mark [36] stands for this setting: group: reproductive, reproductive / reproductive performance / mating / mating + reproductive / reproductive performance / pregnancy / pregnancy.
The mark [37] stands for this setting: systemic / in life observation / body weight / body weight.
Where [38] appears, read: systemic / in life observation / body weight / body weight + systemic / pathology microscopic / testes / interstitial cell tumor benign + ….
Where [39] appears, read: group: developmental, developmental / developmental malformation / bone / unossified.
Setting [40] is: group: maternal, reproductive / reproductive performance / aborted / aborted + systemic / in life observation / body weight / body weight gain + systemic / ….
Setting [41] is: systemic / organ weight / liver / absolute + systemic / organ weight / liver / relative to brain weight.
The mark [42] stands for this setting: systemic / organ weight / liver / absolute + systemic / organ weight / liver / relative to brain weight + systemic / organ weight / liver / ….
The mark [43] stands for this setting: systemic / in life observation / body weight / body weight + systemic / in life observation / food consumption / food consumption.
The mark [44] stands for this setting: systemic / in life observation / body weight / body weight + systemic / in life observation / food consumption / food consumption + systemic….

As usually defined, the LOAEL is the lowest tested level that showed an adverse finding. In general, NOAEL refers to the highest tested level that showed no adverse finding. In the case of `CC1(C)C(C(=O)OC(C#N)c2cccc(Oc3ccccc3)c2)C1(C)C` (stereo not given) [Fenpropathrin], the LOAEL in series [1] (systemic / clinical chemistry / alkaline phosphatase (alp/alk) / alkaline phosphatase (alp/alk) + systemic / hematology / blood clotting / …) is 30 mg/kg/day; in series [2] (systemic / in life observation / clinical signs / tremors) it was 6.25 mg/kg/day; in series [3], 6.25 mg/kg/day; in [4], 27 mg/kg/day; in series [5], more than 65.2 mg/kg/day. In addition, the LEL in series [1] (systemic / clinical chemistry / urea nitrogen / urea) worked out at 5 mg/kg/day; in series [2] (systemic / in life observation / clinical signs / tremors + systemic / clinical chemistry / glucose / glucose), 6.25 mg/kg/day; in series [3], 6.25 mg/kg/day; in [4], 27 mg/kg/day; in series [5] it was 65.2 mg/kg/day. Moreover, the NEL was 1.5 mg/kg/day in series [1] (setting [20]); 2.5 mg/kg/day in series [2] (setting [21]); less than 6.25 mg/kg/day in series [3]; 13 mg/kg/day in [4]; 16.2 mg/kg/day in series [5]. Also, the NOAEL is 15 mg/kg/day in [1] (setting [20]); 2.5 mg/kg/day in series [2] (setting [21]); less than 6.25 mg/kg/day in series [3]; 13 mg/kg/day in series [4]; not below 65.2 mg/kg/day in series [5].

As to `FC(F)(F)C(Cl)Br` (stereo not given) [Halothane], in [6], the LEL amounted to 12.5 ppm, the LOAEL is more than 12.5 ppm, the NEL was less than 12.5 ppm and the NOAEL was not below 12.5 ppm.

With `CC(C)N(C(=O)CCl)c1ccccc1` [Propachlor], the LEL was determined as 75 mg/kg/day in series [7] (systemic / organ weight / liver / nos); 0.625 mg/kg/day in series [8] (setting [23]); 0.625 mg/kg/day in [8] (setting [25]); 69.6 mg/kg/day in [9] (setting [26]); 69.6 mg/kg/day in series [9] (setting [28]); 141 mg/kg/day in [9] (setting [29]). Moreover, the figures for the LEL in [10] (setting [30]), in series [11] and in series [12] (systemic / clinical chemistry / aspartate aminotransferase (ast/sgot) / aspartate aminotransferase (ast/sgot)) were 2.5 mg/kg/day, 50 mg/kg/day and 16.1 mg/kg/day, respectively. For the same compound, the NEL in series [7] (systemic / organ weight / liver / nos + systemic / organ weight / kidney / nos + systemic / pathology microscopic / liver / hypertrophy) is 14.6 mg/kg/day; in series [8] (setting [23]), less than 0.625 mg/kg/day; in series [8] (setting [25]) it was less than 0.625 mg/kg/day; in series [9] (setting [27]), 7.1 mg/kg/day; in series [9] (setting [28]), 7.1 mg/kg/day; in series [10] (setting [30]) it was less than 2.5 mg/kg/day. In addition, the NEL is 5 mg/kg/day in series [11] and 5.4 mg/kg/day in series [12] (setting [32]). For the same compound, the LOAEL in series [7] (setting [22]) was 223 mg/kg/day; in series [8] (setting [23]), more than 25 mg/kg/day; in [8] (setting [24]) it was 25 mg/kg/day; in series [9] (setting [26]), 69.6 mg/kg/day; in series [9] (setting [28]), 69.6 mg/kg/day; in series [9] (setting [29]), more than 141 mg/kg/day. The LOAEL is more than 37.5 mg/kg/day in [10] (setting [31]), 50 mg/kg/day in [11] and 125 mg/kg/day in [12] (setting [32]). Besides, the NOAEL is 75 mg/kg/day in [7] (setting [22]); not below 25 mg/kg/day in series [8] (setting [23]); 6.25 mg/kg/day in [8] (setting [24]); 7.1 mg/kg/day in series [9] (setting [27]); 7.1 mg/kg/day in series [9] (setting [28]); not below 141 mg/kg/day in series [9] (setting [29]). Further, the NOAEL in series [10] (setting [31]) is not below 37.5 mg/kg/day; in [11], 5 mg/kg/day; in [12] (setting [32]) it was 53.6 mg/kg/day.

For the compound `CCNc1nc(Cl)nc(NC(C)(C)C)n1` [Terbuthylazine], the LEL worked out at 2.5 mg/kg/day in series [13] (setting [33]); 2.5 mg/kg/day in [13] (setting [36]); 1.24 mg/kg/day in series [14] (setting [38]); 3.22 mg/kg/day in [15]; 1 mg/kg/day in series [16]; 5 mg/kg/day in series [17] (setting [39]). For the same compound, the LEL in [17] (setting [40]) is 30 mg/kg/day; in series [18] (setting [42]), 2.28 mg/kg/day; in [19] (setting [44]), 1.6 mg/kg/day. The NEL is less than 2.5 mg/kg/day in series [13] (setting [33]); less than 2.5 mg/kg/day in series [13] (setting [36]); less than 1.24 mg/kg/day in [14] (setting [38]); less than 3.22 mg/kg/day in [15]; less than 1 mg/kg/day in series [16]; 1 mg/kg/day in series [17] (setting [39]). The NEL in series [17] (setting [40]) is 5 mg/kg/day; in [18] (setting [42]) it was less than 2.28 mg/kg/day; in [19] (setting [43]), 0.36 mg/kg/day. Further, the LOAEL in [13] (setting [34]) was more than 5 mg/kg/day; in series [13] (setting [35]), more than 5 mg/kg/day; in series [14] (setting [37]) it was 1.24 mg/kg/day; in series [15], 3.22 mg/kg/day; in [16], 1 mg/kg/day; in series [17] (setting [39]), 5 mg/kg/day. The LOAEL in [17] (setting [40]) is 30 mg/kg/day; in series [18] (setting [41]), 2.28 mg/kg/day; in series [19] (setting [44]) it was 1.6 mg/kg/day. The NOAEL was not below 5 mg/kg/day in series [13] (setting [34]); not below 5 mg/kg/day in series [13] (setting [35]); less than 1.24 mg/kg/day in series [14] (setting [37]); less than 3.22 mg/kg/day in series [15]; less than 1 mg/kg/day in [16]; 1 mg/kg/day in series [17] (setting [39]). Moreover, the NOAEL in [17] (setting [40]) is 5 mg/kg/day; in series [18] (setting [41]) it was less than 2.28 mg/kg/day; in series [19] (setting [43]), 0.36 mg/kg/day.
